Laboratory results: ChEMBL document CHEMBL5052828, “Therapeutic agents for treating and preventing autoimmune diseases and cancer and a screening method” (2020)
The source made the active and inactive calls. The rule behind the calls is not given here.

Tests used:
HEK293T [1] = assay: Inhibition of Arid5a in human HEK293T cells at 40 uM assessed as inhibition of stabilization of IL-6 on 3'UTR measured by luciferase assay; assay type: cell-based
MDA-MB-231 [2] = assay: Antiproliferative activity against human MDA-MB-231 cells after 4 hrs by CCK-8 assay; assay type: functional, cell-based; details: MDA-MB-231, 4 h
Mus musculus [3] = assay: Antiinflammatory activity in C57BL/6 mouse model of collagen-induced arthritis assessed as reduction in serum IL-6 level at 0.25 mg, ip; assay type: functional, organism-based
A549 [4] = assay: Antiproliferative activity against human A549 cells after 4 hrs by CCK-8 assay; assay type: functional, cell-based; details: A549, 4 h
Mus musculus [5] = assay: Antiinflammatory activity in C57BL/6 mouse model of collagen-induced arthritis assessed as reduction in frequency of CD4+ IL-17+ cells at 0.25 mg, ip; assay type: functional, organism-based
Mus musculus [6] = assay: Protection against imiquimod-induced psoriasis model of BALB/c mouse assessed as reduction in IL-17a mRNA expression at 1 mg treated topically; assay type: functional, organism-based
Mus musculus [7] = assay: Antiinflammatory activity in C57BL/6 mouse model of collagen-induced arthritis assessed as reduction in clinical score at 0.25 mg, ip; assay type: functional, organism-based
LNCaP [8] = assay: Antiproliferative activity against human LNCaP cells at 25 uM assessed as suppression of cell viability after 4 hrs by CCK-8 assay; assay type: functional
LNCaP [9] = assay: Antiproliferative activity against human LNCaP cells after 4 hrs by CCK-8 assay; assay type: functional, cell-based
A549 [10] = assay: Antiproliferative activity against human A549 cells at 20 uM assessed as suppression of cell viability after 4 hrs by CCK-8 assay; assay type: functional
Mus musculus [11] = assay: Protection against imiquimod-induced psoriasis model of BALB/c mouse assessed as reduction in clinical score at 1 mg treated topically; assay type: functional, organism-based
Mus musculus [12] = assay: Protection against imiquimod-induced psoriasis model of BALB/c mouse assessed as reduction in IL-6 mRNA expression at 1 mg treated topically; assay type: functional, organism-based
MDA-MB-231 [13] = assay: Antiproliferative activity against human MDA-MB-231 cells at 20 uM assessed as suppression of cell viability after 4 hrs by CCK-8 assay; assay type: functional
HEK293T [14] = assay: Inhibition of Arid5a in human HEK293T cells at 10 to 60 uM assessed as inhibition of stabilization of STAT3 on 3'UTR measured by luciferase assay; assay type: cell-based; details: dose 10-60 µM
Mus musculus [15] = assay: Immunosuppressive activity in MOG (35 to 55 residues)/pertussis toxin-induced experimental autoimmune encephalomyelitis female C57BL/6 mouse model assessed as reduction in IL-17 level in encephalitogenic CD4 + T cells at 0.5 mg, ip; assay type: functional, organism-based; details: T-cell
HEK293T [16] = assay: Inhibition of Arid5a F56 pocket X mutant in human HEK293T cells at 40 uM assessed as inhibition of stabilization of IL-6 on 3'UTR measured by luciferase assay; assay type: cell-based
Macrophage [17] = assay: Antiinflammatory activity in LPS-stimulated mouse peritoneal macrophages at 40 uM assessed as decrease in IL-6 level measured by ELISA; assay type: functional, cell-based
HEK293T [18] = assay: Inhibition of Arid5a F56 pocket X mutant in human HEK293T cells at 40 uM assessed as inhibition of stabilization of STAT3 on 3'UTR measured by luciferase assay; assay type: cell-based
HEK293T [19] = assay: Inhibition of Arid5a Y137 pocket X mutant in human HEK293T cells at 40 uM assessed as inhibition of stabilization of OX40 on 3'UTR measured by luciferase assay; assay type: cell-based
Homo sapiens = species on record: Homo sapiens; assay: Inhibition of human Arid5a binding to (ADE) -like stem loop in the OX40 3'UTR measured by RNA-protein binding assay; details: dose 0.5 mg
HEK293T [20] = assay: Inhibition of Arid5a V34 pocket X mutant in human HEK293T cells at 40 uM assessed as inhibition of stabilization of STAT3 on 3'UTR measured by luciferase assay; assay type: cell-based
HEK293T [21] = assay: Inhibition of Arid5a F56 pocket X mutant in human HEK293T cells at 40 uM assessed as inhibition of stabilization of OX40 on 3'UTR measured by luciferase assay; assay type: cell-based
Mus musculus [22] = assay: Immunosuppressive activity in MOG (35 to 55 residues)/pertussis toxin-induced experimental autoimmune encephalomyelitis female C57BL/6 mouse model assessed as reduction in serum TNF-alpha level at 0.5 mg, ip; assay type: functional, organism-based
Mus musculus [23] = assay: Immunosuppressive activity in MOG (35 to 55 residues)/pertussis toxin-induced experimental autoimmune encephalomyelitis female C57BL/6 mouse model assessed as reduction in serum IL-6 level at 0.5 mg, ip; assay type: functional, organism-based
Macrophage [24] = assay: Antiinflammatory activity in LPS-stimulated mouse peritoneal macrophages at 40 uM assessed as decrease STAT3 mRNA expression in Th17 cells; assay type: functional, cell-based
HEK293T [25] = assay: Inhibition of Arid5a L84 pocket X mutant in human HEK293T cells at 40 uM assessed as inhibition of stabilization of STAT3 on 3'UTR measured by luciferase assay; assay type: cell-based
HEK293T [26] = assay: Inhibition of Arid5a L84 pocket X mutant in human HEK293T cells at 40 uM assessed as inhibition of stabilization of OX40 on 3'UTR measured by luciferase assay; assay type: cell-based
HEK293T [27] = assay: Inhibition of Arid5a V34 pocket X mutant in human HEK293T cells at 40 uM assessed as inhibition of stabilization of OX40 on 3'UTR measured by luciferase assay; assay type: cell-based
HEK293T [28] = assay: Inhibition of Arid5a V34 pocket X mutant in human HEK293T cells at 40 uM assessed as inhibition of stabilization of IL-6 on 3'UTR measured by luciferase assay; assay type: cell-based
HEK293T [29] = assay: Inhibition of Arid5a L84 pocket X mutant in human HEK293T cells at 40 uM assessed as inhibition of stabilization of IL-6 on 3'UTR measured by luciferase assay; assay type: cell-based
Mus musculus [30] = assay: Immunosuppressive activity in MOG (35 to 55 residues)/pertussis toxin-induced experimental autoimmune encephalomyelitis female C57BL/6 mouse model assessed as reduction in OX40 mRNA expression in CD4 + T cells at 0.5 mg, ip; assay type: functional, organism-based; details: T-cell
HEK293T [31] = assay: Inhibition of Arid5a Y137 pocket X mutant in human HEK293T cells at 40 uM assessed as inhibition of stabilization of STAT3 on 3'UTR measured by luciferase assay; assay type: cell-based
Macrophage [32] = assay: Antiinflammatory activity in LPS-stimulated mouse peritoneal macrophages at 40 uM assessed as decrease in IL-17 level measured by ELISA; assay type: functional, cell-based
Mus musculus [33] = assay: Immunosuppressive activity in MOG (35 to 55 residues)/pertussis toxin-induced experimental autoimmune encephalomyelitis female C57BL/6 mouse model assessed as reduction in frequency of CD4 + OX40 + T cells at 0.5 mg, ip; assay type: functional, organism-based; details: T-cell
HEK293T [34] = assay: Inhibition of Arid5a in human HEK293T cells at 10 to 60 uM assessed as inhibition of stabilization of IL-6 on 3'UTR measured by luciferase assay; assay type: cell-based; details: dose 10-60 µM
HEK293T [35] = assay: Inhibition of Arid5a Y137 pocket X mutant in human HEK293T cells at 40 uM assessed as inhibition of stabilization of IL-6 on 3'UTR measured by luciferase assay; assay type: cell-based
HEK293T [36] = assay: Inhibition of Arid5a in human HEK293T cells at 10 to 60 uM assessed as inhibition of stabilization of OX40 on 3'UTR measured by luciferase assay; assay type: cell-based; details: dose 10-60 µM
Macrophage [37] = assay: Antiinflammatory activity in LPS-stimulated mouse peritoneal macrophages at 40 uM assessed as effect on TNF-alpha level measured by ELISA; assay type: functional, cell-based
Mus musculus [38] = assay: Immunosuppressive activity in MOG (35 to 55 residues)/pertussis toxin-induced experimental autoimmune encephalomyelitis female C57BL/6 mouse model assessed as reduction in clinical scores at 0.5 mg, ip; assay type: functional, organism-based
Macrophage [39] = assay: Antiinflammatory activity in LPS-stimulated mouse peritoneal macrophages at 40 uM assessed as decrease in frequency of CD4 + OX40 + T cells in polarized Th17 cells measured by flow cytometry analysis; assay type: functional, cell-based

Cc1nnc(SCC(=O)c2ccccc2)o1
inhibition (HEK293T [1]): Active
IC50 (MDA-MB-231 [2]): 27.8 µM
Activity (Mus musculus [3]): Active
IC50 (A549 [4]): 28.4 µM
Activity (Mus musculus [5]): Active
Activity (Mus musculus [6]): Active
Activity (Mus musculus [7]): Active
Activity (LNCaP [8]): 61%
IC50 (LNCaP [9]): 34.6 µM
Activity (A549 [10]): 59%
Activity (Mus musculus [11]): Active
Activity (Mus musculus [12]): Active
Activity (MDA-MB-231 [13]): 64%

CC(=O)CSc1nnc(-c2cccnc2)o1
inhibition (HEK293T [1]): Active
IC50 (MDA-MB-231 [2]): 27.8 µM
Activity (Mus musculus [3]): Active
IC50 (A549 [4]): 28.4 µM
Activity (Mus musculus [5]): Active
Activity (Mus musculus [6]): Active
Activity (Mus musculus [7]): Active
Activity (LNCaP [8]): 61%
IC50 (LNCaP [9]): 34.6 µM
Activity (A549 [10]): 59%
Activity (Mus musculus [11]): Active
Activity (Mus musculus [12]): Active
Activity (MDA-MB-231 [13]): 64%

Cc1nnc(NCC(=O)c2ccccc2)s1
inhibition (HEK293T [1]): Active
IC50 (MDA-MB-231 [2]): 27.8 µM
Activity (Mus musculus [3]): Active
IC50 (A549 [4]): 28.4 µM
Activity (Mus musculus [5]): Active
Activity (Mus musculus [6]): Active
Activity (Mus musculus [7]): Active
Activity (LNCaP [8]): 61%
IC50 (LNCaP [9]): 34.6 µM
Activity (A549 [10]): 59%
Activity (Mus musculus [11]): Active
Activity (Mus musculus [12]): Active
Activity (MDA-MB-231 [13]): 64%

O=C(CSc1nnc(-c2ccncc2)o1)c1ccccc1
inhibition (HEK293T [14]): Active
Activity (Mus musculus [15]): Active
inhibition (HEK293T [1]): Active
inhibition (HEK293T [16]): inactive
IC50 (MDA-MB-231 [2]): 27.8 µM
Activity (Macrophage [17]): Active
Activity (Mus musculus [3]): Active
inhibition (HEK293T [18]): inactive
inhibition (HEK293T [19]): inactive
inhibition (Homo sapiens): Active
inhibition (HEK293T [20]): inactive
IC50 (A549 [4]): 28.4 µM
Activity (Mus musculus [5]): Active
inhibition (HEK293T [21]): inactive
Activity (Mus musculus [22]): Active
Activity (Mus musculus [23]): Active
Activity (Macrophage [24]): Active
inhibition (HEK293T [25]): inactive
Activity (Mus musculus [6]): Active
Activity (Mus musculus [7]): Active
inhibition (HEK293T [26]): inactive
Activity (LNCaP [8]): 61%
IC50 (LNCaP [9]): 34.6 µM
inhibition (HEK293T [27]): inactive
inhibition (HEK293T [28]): inactive
inhibition (HEK293T [29]): inactive
Activity (A549 [10]): 59%
Activity (Mus musculus [30]): Active
Activity (Mus musculus [11]): Active
inhibition (HEK293T [31]): inactive
Activity (Macrophage [32]): Active
Activity (Mus musculus [12]): Active
Activity (Mus musculus [33]): Active
inhibition (HEK293T [34]): Active
inhibition (HEK293T [35]): inactive
inhibition (HEK293T [36]): Active
Activity (Macrophage [37]): inactive
Activity (Mus musculus [38]): Active
Activity (MDA-MB-231 [13]): 64%
Activity (Macrophage [39]): Active
